# Reference: patent publication US10329309B2, “3-(3H-imidazo[4,5-B]pyridin-2-yl)-1H-pyrazolo[4,3-B]pyridines and therapeutic uses thereof” (Samumed, LLC, priority 2015, dated 2019)
# Tests used:
# Format in all cases: cell-based
# [1] = test system: Wnt activity (Sp5-Luc reporter, SW480 colon carcinoma cells); assay: Screening assay for Wnt activity: Sp5-Luc reporter gene assay in SW480 cells; conditions: Homo sapiens; for inhibition at 10 µM: 10 μM compound, read-out: percent inhibition at 10 μM (given for EC50 of >10 μM); for EC50: overnight incubation, 10-point dose-response from 10 μM
# Summary of the method: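 Luminescence (BrightGlo) read after overnight 37 °C exposure of Sp5-Luc SW480 reporter cells, 4,000/well in 1% FBS, to compound dosed 1:3 over 10 points from 10 μM with 0.1% DMSO. Values normalized to DMSO-only cells, fitted with variable-slope four-parameter model; where EC50 exceeds 10 μM, % inhibition at 10 μM reported.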
# SW480 colon cancer cells = assay: Cell viability assay (CellTiter-Blue), four days; conditions: Homo sapiens, 96 h; for EC50: CellTiter-Blue cell viability; for inhibition at 10 µM: read-out: percent inhibition at 10 μM (given for EC50 of >10 μM)
# Summary of the method: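 Resazurin reduction (Ex 560/Em 590 nm, ~3 h reagent incubation) served as the viability read-out after SW480 cells were treated for four days at 37 °C. Doses ran from 10 μM down to 0.0045 μM in eight 1:3 steps. Curves fitted non-linearly for EC50, else % inhibition at 10 μM reported.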
# [2] = test system: primary human fibroblasts derived from IPF patients (LL29 cells), α-smooth muscle actin (αSMA); assay: Inhibition of the fibrotic process: TGF-β1-treated primary human fibroblasts from IPF patients, αSMA staining; conditions: Fibroblast, 96 h, 4 days; for EC50: LL29 fibroblasts from IPF patients, TGF-β1 20 ng/mL, inhibition of fibrotic process; for inhibition at 10 µM: LL29 fibroblasts, TGF-β1 treated, read-out: percent inhibition at 10 μM (given for EC50 of >10 μM)
# Summary of the method: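 EC50 values come from non-linear fits of the αSMA-positive percentage among SYTOX-excluded live cells, normalized to TGF-β1 plus DMSO controls, or appear as % inhibition at 10 μM when above 10 μM. Fibrosis was induced in IPF-derived LL29 fibroblasts by 20 ng/mL TGF-β1 over 4 days, with 1:2 compound dilutions from 10 μM.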
SMILES,inhibition at 10 µM [1] [%],EC50 [1] [µM],EC50 (SW480 colon cancer cells) [µM],inhibition at 10 µM (SW480 colon cancer cells) [%],EC50 [2] [µM],inhibition at 10 µM [2] [%]
"O=C(Nc1cncc(-c2ccc3[nH]nc(-c4nc5cccnc5[nH]4)c3n2)c1)C1CCCCC1 [Compound 275, N-(5-(3-(3H-Imidazo[4,5-b]pyridin-2-yl)-1H-pyrazolo[4,3-b]pyridin-5-yl)pyridin-3-yl)cyclohexanecarboxamide]",3.1,> 10,> 10,2.6,3.96,
"CCC(=O)Nc1cncc(-c2ccc3[nH]nc(-c4nc5c(-c6ccsc6)ccnc5[nH]4)c3n2)c1 [Compound 281, N-(5-(3-(7-(thiophen-3-yl)-3H-imidazo[4,5-b]pyridin-2-yl)-1H-pyrazolo[4,3-b]pyridin-5-yl)pyridin-3-yl)propionamide]",28.3,> 10,> 10,24.2,> 10,21.4
"CN(C)c1cncc(-c2ccc3[nH]nc(-c4nc5c(-c6cccs6)ccnc5[nH]4)c3n2)c1 [Compound 343, N,N-dimethyl-5-(3-(7-(thiophen-2-yl)-3H-imidazo[4,5-b]pyridin-2-yl)-1H-pyrazolo [4,3-b]pyridin-5-yl)pyridin-3-amine]",31.7,> 10,> 10,17.5,1.18,
"Cc1ccc(-c2ccnc3[nH]c(-c4n[nH]c5ccc(-c6cncc(NC(=O)C7CCCC7)c6)nc45)nc23)s1 [Compound 414, N-(5-(3-(7-(5-Methylthiophen-2-yl)-3H-imidazo[4,5-b]pyridin-2-yl)-1H-pyrazolo[4,3-b]pyridin-5-yl)pyridin-3-yl)cyclopentanecarboxamide]",47,> 10,> 10,14.7,0.066,
"CCNCc1cncc(-c2ccc3[nH]nc(-c4nc5c(-c6cc(F)cc(NCCN(C)C)c6)ccnc5[nH]4)c3n2)c1 [Compound 454, N^1-(3-(2-(5-(5-((ethylamino)methyl)pyridin-3-yl)-1H-pyrazolo[4,3-b]pyridin-3-yl)-3H-imidazo[4,5-b]pyridin-7-yl)-5-fluorophenyl)-N^2,N^2-dimethylethane-1,2-diamine]",43.4,> 10,> 10,42.2,3.51,
"CCCCC(=O)Nc1cncc(-c2ccc3[nH]nc(-c4nc5c(-c6cc(F)cc(NCCN(C)C)c6)ccnc5[nH]4)c3n2)c1 [Compound 467, N-(5-(3-(7-(3-((2-(dimethylamino)ethyl)amino)-5-fluorophenyl)-3H-imidazo[4,5-b]pyridin-2-yl)-1H-pyrazolo[4,3-b]pyridin-5-yl)pyridin-3-yl)pentanamide]",34.1,> 10,> 10,2.7,2.26,
"CN(C)CCNc1cc(F)cc(-c2ccnc3[nH]c(-c4n[nH]c5ccc(-c6ccccn6)nc45)nc23)c1 [Compound 476, N^1-(3-Fluoro-5-(2-(5-(pyridin-2-yl)-1H-pyrazolo[4,3-b]pyridin-3-yl)-3H-imidazo[4,5-b]pyridin-7-yl)phenyl)-N^2,N^2-dimethylethane-1,2-diamine]",15.5,> 10,9.02,,4.41,
"CS(=O)(=O)NCc1cc(F)cc(-c2ccnc3[nH]c(-c4n[nH]c5ccc(-c6cncc(NC(=O)c7ccccc7)c6)nc45)nc23)c1 [Compound 487, N-(5-(3-(7-(3-Fluoro-5-(methylsulfonamidomethyl)phenyl)-3H-imidazo[4,5-b]pyridin-2-yl)-1H-pyrazolo[4,3-b]pyridin-5-yl)pyridin-3-yl)benzamide]",7.1,> 10,> 10,0.6,> 10,0
"CCCC(=O)Nc1cncc(-c2ccc3[nH]nc(-c4nc5c(-c6cc(F)cc(CNS(C)(=O)=O)c6)ccnc5[nH]4)c3n2)c1 [Compound 493, N-(5-(3-(7-(3-fluoro-5-(methylsulfonamidomethyl)phenyl)-3H-imidazo[4,5-b]pyridin-2-yl)-1H-pyrazolo[4,3-b]pyridin-5-yl)pyridin-3-yl)butyramide]",14.8,> 10,> 10,3.9,> 10,0
"CS(=O)(=O)NCc1cc(F)cc(-c2ccnc3[nH]c(-c4n[nH]c5ccc(-c6cncnc6)nc45)nc23)c1 [Compound 503, N-(3-Fluoro-5-(2-(5-(pyrimidin-5-yl)-1H-pyrazolo[4,3-b]pyridin-3-yl)-3H-imidazo[4,5-b]pyridin-7-yl)benzyl)methanesulfonamide]",14.1,> 10,> 10,0.9,> 10,0
"Fc1cccc(-c2ccnc3[nH]c(-c4n[nH]c5ccc(C6CCNCC6)nc45)nc23)c1 [Compound 505, 3-(7-(3-fluorophenyl)-3H-imidazo[4,5-b]pyridin-2-yl)-5-(piperidin-4-yl)-1H-pyrazolo[4,3-b]pyridine]",16,> 10,8.3,,4.93,
"Fc1cccc(-c2ccnc3[nH]c(-c4n[nH]c5ccc(-c6cn[nH]c6)nc45)nc23)c1 [Compound 507, 3-(7-(3-fluorophenyl)-3H-imidazo[4,5-b]pyridin-2-yl)-5-(1H-pyrazol-4-yl)-1H-pyrazolo[4,3-b]pyridine]",17,> 10,> 10,0,> 10,16.2
"Cn1cc(-c2ccc3[nH]nc(-c4nc5c(-c6cccc(F)c6)ccnc5[nH]4)c3n2)cn1 [Compound 508, 3-(7-(3-fluorophenyl)-3H-imidazo[4,5-b]pyridin-2-yl)-5-(1-methyl-1H-pyrazol-4-yl)-1H-pyrazolo[4,3-b]pyridine]",41,> 10,> 10,0,> 10,8.1
"Fc1cccc(-c2ccnc3[nH]c(-c4n[nH]c5ccc(-c6cncc(OC7CCNCC7)c6)nc45)nc23)c1 [Compound 512, 3-(7-(3-fluorophenyl)-3H-imidazo[4,5-b]pyridin-2-yl)-5-(5-(piperidin-4-yloxy)pyridin-3-yl)-1H-pyrazolo[4,3-b]pyridine]",45,> 10,> 10,15.7,1.66,
"c1cncc(-c2ccnc3[nH]c(-c4n[nH]c5ccc(-c6cncc(OC7CCCCC7)c6)nc45)nc23)c1 [Compound 559, 5-(5-(Cyclohexyloxy)pyridin-3-yl)-3-(7-(pyridin-3-yl)-3H-imidazo[4,5-b]pyridin-2-yl)-1H-pyrazolo[4,3-b]pyridine]",12.4,> 10,> 10,4,5.18,
"Oc1cncc(-c2ccc3[nH]nc(-c4nc5c(-c6cccnc6)ccnc5[nH]4)c3n2)c1 [Compound 565, 5-(3-(7-(Pyridin-3-yl)-3H-imidazo[4,5-b]pyridin-2-yl)-1H-pyrazolo[4,3-b]pyridin-5-yl)pyridin-3-ol]",14.1,> 10,> 10,5.9,> 10,0
